Measured values reported in publication PMC11589570, “Critical assessment of LC3/GABARAP ligands used for degrader development and ligandability of LC3/GABARAP binding pockets” (Nature Communications, 2024).
“And” between values parts separate entries of the source, which are not always exact repeats. Equal entries are not always repeated. “Also recorded” adds a separate entry of the source. Where two headings read alike, the source gives them in different places.

Experiments:
GABARAPL2 = GABARAPL2 (Homo sapiens, UniProt P60520); conditions: GABARAPL2:ligand molar ratio 1:2
Sequence of GABARAPL2 (P60520 whole entry): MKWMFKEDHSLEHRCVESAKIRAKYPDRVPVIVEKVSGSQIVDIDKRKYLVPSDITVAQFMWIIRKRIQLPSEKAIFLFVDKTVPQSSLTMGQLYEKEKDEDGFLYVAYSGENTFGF

LC3A = LC3A (Homo sapiens, UniProt Q9H492); experiment: Isothermal titration calorimetry (ITC); type: binding; conditions: LC3A
U2OS cells = experiment: Cell growth assay (IncuCyte confluence over 72 h); type: cell-based; design: key to U2OS cell growth: % of well area covered by cells (confluence); conditions: for U2OS cell growth: listed as 8F20
In short: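 U2OS cells were grown in DMEM with 10% FBS for 24 h before treatment. Confluence was then tracked by IncuCyte phase imaging over 72 h and expressed as % of well area covered by cells. Each point is the average of three wells.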

Cc1ccc(C(=O)N(CCCN)[C@@H](c2nc3cc(Cl)ccc3c(=O)n2Cc2ccccc2)C(C)C)cc1 [compound 3, (R)-N-(3-aminopropyl)-N-(1-(3-benzyl-7-chloro-4-oxo-3,4-dihydroquinazolin-2-yl)−2-methylpropyl)−4-methylbenzamide]
CSP (GABARAPL2; residue A19): 0.00171 ppm
CSP (GABARAPL2; residue A23): 0.00424 ppm
CSP (GABARAPL2; residue A58): 0.00148 ppm
CSP (GABARAPL2; residue A75): 0.002 ppm
CSP (GABARAPL2; residue A108): 0.000762 ppm
CSP (GABARAPL2; residue C15): 0.004 ppm
CSP (GABARAPL2; residue D8): 0.00263 ppm
CSP (GABARAPL2; residue D27): 0.00158 ppm
CSP (GABARAPL2; residue D43): 0.00251 ppm
CSP (GABARAPL2; residue D45): 0.003 ppm
CSP (GABARAPL2; residue D54): 0.000849 ppm
CSP (GABARAPL2; residue D81): 0.00228 ppm
CSP (GABARAPL2; residue D100): 0.00228 ppm
CSP (GABARAPL2; residue D102): 0.00165 ppm
CSP (GABARAPL2; residue E7): 0.00472 ppm
CSP (GABARAPL2; residue E12): 0.00142 ppm
CSP (GABARAPL2; residue E17): 0.000762 ppm
CSP (GABARAPL2; residue E34): 0.009 ppm
CSP (GABARAPL2; residue E73): 0.000762 ppm
CSP (GABARAPL2; residue E96): 0.000707 ppm
CSP (GABARAPL2; residue E98): 0.00122 ppm
CSP (GABARAPL2; residue E101): 0.002 ppm
CSP (GABARAPL2; residue E112): 0.0017 ppm
CSP (GABARAPL2; residue F60): 0.005 ppm
CSP (GABARAPL2; residue F77): 0.000283 ppm
CSP (GABARAPL2; residue F79): 0.002 ppm
CSP (GABARAPL2; residue F104): 0.0075 ppm
CSP (GABARAPL2; residue F115): 0.005 ppm
CSP (GABARAPL2; residue G38): 0.005 ppm
CSP (GABARAPL2; residue G103): 0.00213 ppm
CSP (GABARAPL2; residue G111): 0.00847 ppm
CSP (GABARAPL2; residue G116): 0.0024 ppm
CSP (GABARAPL2; residue H9): 0.010 ppm
CSP (GABARAPL2; residue H13): 0.0011 ppm
CSP (GABARAPL2; residue I21): 0.00184 ppm
CSP (GABARAPL2; residue I32): 0.00354 ppm
CSP (GABARAPL2; residue I41): 0.011 ppm
CSP (GABARAPL2; residue I44): 0.00216 ppm
CSP (GABARAPL2; residue I55): 0.000762 ppm
CSP (GABARAPL2; residue I63): 0.004 ppm
CSP (GABARAPL2; residue I64): 0.00283 ppm
CSP (GABARAPL2; residue I68): 0.008 ppm
CSP (GABARAPL2; residue I76): 0.000707 ppm
CSP (GABARAPL2; residue K2): 0.008 ppm
CSP (GABARAPL2; residue K6): 0.007 ppm
CSP (GABARAPL2; residue K20): 0.000707 ppm
CSP (GABARAPL2; residue K24): 0.001 ppm
CSP (GABARAPL2; residue K35): 0.004 ppm
CSP (GABARAPL2; residue K46, estimated): 0.010 ppm
CSP (GABARAPL2; residue K48): 0.022 ppm
CSP (GABARAPL2; residue K66): 0.00142 ppm
CSP (GABARAPL2; residue K74): 0.000906 ppm
CSP (GABARAPL2; residue K97): 0.00113 ppm
CSP (GABARAPL2; residue K99): 0.00144 ppm
CSP (GABARAPL2; residue L11): 0.000762 ppm
CSP (GABARAPL2; residue L50): 0.00216 ppm
CSP (GABARAPL2; residue L70): 0.0019 ppm
CSP (GABARAPL2; residue L78): 0.00212 ppm
CSP (GABARAPL2; residue L105): 0.00283 ppm
CSP (GABARAPL2; residue M1): 0.006 ppm
CSP (GABARAPL2; residue M61): 0.00221 ppm
CSP (GABARAPL2; residue N113): 0.000141 ppm
CSP (GABARAPL2; residue P26, estimated): 0.002 ppm
CSP (GABARAPL2; residue P30, estimated): 0.002 ppm
CSP (GABARAPL2; residue P52, estimated): 0.002 ppm
CSP (GABARAPL2; residue P71, estimated): 0.002 ppm
CSP (GABARAPL2; residue Q40): 0.00659 ppm
CSP (GABARAPL2; residue Q59): 0.000424 ppm
CSP (GABARAPL2; residue Q69): 0.0011 ppm
CSP (GABARAPL2; residue R14): 0.003 ppm
CSP (GABARAPL2; residue R22): 0.00649 ppm
CSP (GABARAPL2; residue R28): 0.00232 ppm
CSP (GABARAPL2; residue R47, estimated): 0.015 ppm
CSP (GABARAPL2; residue R65): 0.0022 ppm
CSP (GABARAPL2; residue R67): 0.003 ppm
CSP (GABARAPL2; residue S10): 0.008 ppm
CSP (GABARAPL2; residue S18): 0.00146 ppm
CSP (GABARAPL2; residue S37): 0.005 ppm
CSP (GABARAPL2; residue S39): 0.00232 ppm
CSP (GABARAPL2; residue S53): 0.002 ppm
CSP (GABARAPL2; residue S72): 0.00122 ppm
CSP (GABARAPL2; residue S110): 0.000825 ppm
CSP (GABARAPL2; residue T56): 0.00133 ppm
CSP (GABARAPL2; residue T114): 0.0017 ppm
CSP (GABARAPL2; residue V16): 0.000141 ppm
CSP (GABARAPL2; residue V29): 0.00214 ppm
CSP (GABARAPL2; residue V31): 0.00444 ppm
CSP (GABARAPL2; residue V33): 0.00281 ppm
CSP (GABARAPL2; residue V36): 0.00638 ppm
CSP (GABARAPL2; residue V42): 0.00652 ppm
CSP (GABARAPL2; residue V51): 0.00319 ppm
CSP (GABARAPL2; residue V57): 0.00127 ppm
CSP (GABARAPL2; residue V80): 0.00281 ppm
CSP (GABARAPL2; residue V107): 0.005 ppm
CSP (GABARAPL2; residue W3): 0.007 ppm
CSP (GABARAPL2; residue W62): 0.0057 ppm
CSP (GABARAPL2; residue Y25): 0.00742 ppm
CSP (GABARAPL2; residue Y49): 0.010 ppm
CSP (GABARAPL2; residue Y106): 0.00214 ppm
CSP (GABARAPL2; residue Y109): 0.00263 ppm
outcome of ITC titration (LC3A): did not yield significant binding heats
U2OS cell growth (U2OS cells; 100 nM, time 34 h): 22.2522 and 20.3197 and 25.5047
U2OS cell growth (U2OS cells; 100 nM, time 36 h): 25.043 and 22.9919 and 27.5453
U2OS cell growth (U2OS cells; 100 nM, time 38 h): 34.8117 and 27.203 and 36.419
U2OS cell growth (U2OS cells; 100 nM, time 40 h): 28.7682 and 25.0593 and 31.2523
U2OS cell growth (U2OS cells; 100 nM, time 42 h): 28.8457 and 26.5057 and 32.2617
U2OS cell growth (U2OS cells; 100 nM, time 44 h): 31.3439 and 34.6421 and 31.7152
U2OS cell growth (U2OS cells; 100 nM, time 46 h): 34.3656 and 30.4353 and 36.3708
U2OS cell growth (U2OS cells; 500 nM, time 34 h): 26.6194 and 31.3484 and 27.2425
U2OS cell growth (U2OS cells; 500 nM, time 36 h): 31.7612 and 33.804 and 33.4668
U2OS cell growth (U2OS cells; 500 nM, time 38 h): 33.118 and 34.4569 and 30.251
U2OS cell growth (U2OS cells; 500 nM, time 40 h): 39.6842 and 38.1992 and 33.6035
U2OS cell growth (U2OS cells; 500 nM, time 42 h): 36.1441 and 40.2893 and 34.3307
U2OS cell growth (U2OS cells; 500 nM, time 44 h): 39.8612 and 39.5559 and 35.4494
U2OS cell growth (U2OS cells; 1 uM, time 34 h): 32.3197 and 36.2486 and 28.9643
U2OS cell growth (U2OS cells; 1 uM, time 36 h): 35.3333 and 38.6378 and 32.1258
U2OS cell growth (U2OS cells; 1 uM, time 38 h): 37.1941 and 39.9036 and 33.4921
U2OS cell growth (U2OS cells; 1 uM, time 40 h): 42.2479 and 44.6121 and 35.334
U2OS cell growth (U2OS cells; 1 uM, time 42 h): 42.2672 and 42.3728 and 37.7313
U2OS cell growth (U2OS cells; 1 uM, time 44 h): 41.5555 and 43.3678 and 38.4367
U2OS cell growth (U2OS cells; 1 uM, time 46 h): 37.0733
U2OS cell growth (U2OS cells; 3 uM, time 34 h): 24.9204 and 26.3201 and 25.7719
U2OS cell growth (U2OS cells; 3 uM, time 36 h): 25.7351 and 27.3161 and 28.6407
U2OS cell growth (U2OS cells; 3 uM, time 38 h): 25.9027 and 26.3122 and 27.7775
U2OS cell growth (U2OS cells; 3 uM, time 40 h): 26.2298 and 26.2214 and 29.7472
U2OS cell growth (U2OS cells; 3 uM, time 42 h): 25.5977 and 26.3382 and 29.6536
U2OS cell growth (U2OS cells; 3 uM, time 44 h): 26.2297 and 25.3695 and 28.5871
U2OS cell growth (U2OS cells; 3 uM, time 46 h): 24.6522 and 24.6058 and 27.1829
U2OS cell growth (U2OS cells; 5 uM, time 34 h): 28.2897 and 22.3175 and 29.2635
U2OS cell growth (U2OS cells; 5 uM, time 36 h): 23.4225 and 23.0973 and 22.2621
U2OS cell growth (U2OS cells; 5 uM, time 38 h): 33.3374 and 20.2415 and 36.6497
U2OS cell growth (U2OS cells; 5 uM, time 40 h): 36.8034 and 23.7173 and 40.6411
U2OS cell growth (U2OS cells; 5 uM, time 42 h): 29.192 and 24.8481 and 31.1144
U2OS cell growth (U2OS cells; 5 uM, time 44 h): 25.7303 and 24.4958 and 26.8332
U2OS cell growth (U2OS cells; 5 uM, time 46 h): 31.8475 and 23.3649 and 37.1335
effect on cell growth (confluence) (U2OS cells; U2OS, 72 h): significant growth inhibition in all tested concentrations; also recorded: strongly suppressed cellular growth
